Publication PMC8253220, “Molecular design, synthesis and in vitro biological evaluation of thienopyrimidine–hydroxamic acids as chimeric kinase HDAC inhibitors: a challenging approach to combat cancer” (Journal of Enzyme Inhibition and Medicinal Chemistry, 2021)
Read-outs that look alike come from different tables or passages of the source.

Experiments:
HER2 = settings: Figure 2; cited from earlier work
VEGFR2 = settings: cited from earlier work
EGFR = EGFR (Homo sapiens, UniProt P00533); settings: cited from earlier work
Hela nuclear extracts = experiment: Hela nuclear extract HDAC inhibitor assay (BPS Bioscience); format: biochemical
Protocol: The purpose of the study is to determine the effects of twenty compounds from Misr International University on the enzymatic activities of hela nuclear extracts using an in vitro […]
7a Solution 10mM DMSO 10 10 % DMSO in
7b Solution 10mM DMSO 10 10 % DMSO in
7d Solution 10mM DMSO 10 10 % DMSO in
2.3 Experimental Conditions
2.3.1 Enzymes and Substrates
Assay Catalog # Substrate
Hela Nuclear Exctract 50053 10 µM HDAC Substrate 3
For the hela nuclear extracts, hela cells were grown to 90 % confluency. Hela nuclear extracts were prepared from the Nuclear Extraction Kit from abcam (Catalog # ab113474). The final total protein concentration was calculated to be 2.4 µg/µl. From this, the hela nuclear extracts was diluted 20-fold in HDAC assay buffer and 5 µl of the dilution was added to a 50 µl reaction.
The compounds are dissolved in DMSO. A series of dilutions of the compounds were prepared with 10% DMSO in HDAC assay buffer and 5 µl of the dilution was added to a 50 µl reaction so that the final concentration of DMSO is 1 % in all of […]
The enzymatic reactions for the hela nuclear extract were conducted in duplicate at 37 °C for 60 minutes in a 50 µl mixture containing HDAC assay buffer, 5 µg BSA, an HDAC substrate (see 2.3.1), hela nuclear extract, and a test compound (see 2.2).
After enzymatic reactions, 50μl of 2 x HDAC Developer was added to each well for the hela nuclear extract and the plate was incubated at room temperature for an additional 15 […]
Fluorescence intensity was measured at an excitation of 360 nm and an emission of 460 nm using a Tecan Infinite M1000 microplate reader.
Hela nuclear extract activity assays were performed in duplicates at each concentration.
The fluorescent intensity data were analyzed using the computer software, Graphpad Prism. In the absence of the compound, the fluorescent intensity (Ft) in each data set was defined as 100% activity. In the absence of hela nuclear extract, the fluorescent intensity (Fb) in each data set was defined as 0% activity. The percent activity in the presence of each compound was calculated according to the following equation: %activity = (F-Fb)/(Ft-Fb), where F= the fluorescent intensity in the presence of the compound.
The values of percentage activity were plotted on a bar graph.

HDAC6 [1] = molecular target: T1, HDAC6 (Homo sapiens, UniProt Q9UBN7); experiment: In vitro HDAC6 inhibitory assay (BPS Bioscience, fluorogenic); format: biochemical; settings: read-out: % Inhibition HDAC6
T1 construct: purchased BPS Bioscience 50006
T1 sequence (Q9UBN7 1-1215): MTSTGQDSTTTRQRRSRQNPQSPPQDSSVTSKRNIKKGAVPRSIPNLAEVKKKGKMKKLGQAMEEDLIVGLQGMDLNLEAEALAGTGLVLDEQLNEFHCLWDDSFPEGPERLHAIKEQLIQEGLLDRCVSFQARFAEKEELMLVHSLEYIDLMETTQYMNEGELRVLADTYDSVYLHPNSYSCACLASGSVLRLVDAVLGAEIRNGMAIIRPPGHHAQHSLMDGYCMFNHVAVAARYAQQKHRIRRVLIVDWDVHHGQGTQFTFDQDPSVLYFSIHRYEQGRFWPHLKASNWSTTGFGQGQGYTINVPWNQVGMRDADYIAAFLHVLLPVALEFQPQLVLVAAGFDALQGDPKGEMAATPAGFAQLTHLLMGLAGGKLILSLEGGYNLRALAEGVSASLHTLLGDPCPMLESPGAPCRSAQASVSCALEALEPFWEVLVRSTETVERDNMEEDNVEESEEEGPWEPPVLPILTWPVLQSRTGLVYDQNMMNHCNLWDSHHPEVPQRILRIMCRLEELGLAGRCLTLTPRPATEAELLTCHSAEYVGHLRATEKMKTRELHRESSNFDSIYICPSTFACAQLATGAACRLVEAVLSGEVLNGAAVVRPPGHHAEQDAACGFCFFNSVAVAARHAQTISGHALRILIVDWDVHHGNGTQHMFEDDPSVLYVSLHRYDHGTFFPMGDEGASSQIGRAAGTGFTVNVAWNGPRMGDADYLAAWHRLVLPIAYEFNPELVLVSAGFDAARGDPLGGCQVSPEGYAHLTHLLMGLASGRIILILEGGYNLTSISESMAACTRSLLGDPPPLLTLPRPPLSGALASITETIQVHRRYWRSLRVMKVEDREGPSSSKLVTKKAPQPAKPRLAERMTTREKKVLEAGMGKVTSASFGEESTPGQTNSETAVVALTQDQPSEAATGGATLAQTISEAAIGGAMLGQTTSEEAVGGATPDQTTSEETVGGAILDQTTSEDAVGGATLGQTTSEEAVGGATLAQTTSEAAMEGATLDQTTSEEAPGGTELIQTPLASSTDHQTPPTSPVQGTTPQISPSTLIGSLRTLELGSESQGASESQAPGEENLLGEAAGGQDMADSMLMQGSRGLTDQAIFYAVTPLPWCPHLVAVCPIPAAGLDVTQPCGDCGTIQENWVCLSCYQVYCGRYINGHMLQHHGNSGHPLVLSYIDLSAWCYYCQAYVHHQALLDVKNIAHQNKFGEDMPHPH
Protocol: (1 picture or pasted object on this page, not shown here)
HDAC activity assays were performed in duplicates at each concentration. The

HDAC = settings: Figure 2; cited from earlier work
HDAC6 [2] = molecular target: T1, HDAC6; settings: Figure 2; cited from earlier work
[3] = Figure 3, read-out: VEGFR2 IC50

Chain of EGFR (P00533 25-1210): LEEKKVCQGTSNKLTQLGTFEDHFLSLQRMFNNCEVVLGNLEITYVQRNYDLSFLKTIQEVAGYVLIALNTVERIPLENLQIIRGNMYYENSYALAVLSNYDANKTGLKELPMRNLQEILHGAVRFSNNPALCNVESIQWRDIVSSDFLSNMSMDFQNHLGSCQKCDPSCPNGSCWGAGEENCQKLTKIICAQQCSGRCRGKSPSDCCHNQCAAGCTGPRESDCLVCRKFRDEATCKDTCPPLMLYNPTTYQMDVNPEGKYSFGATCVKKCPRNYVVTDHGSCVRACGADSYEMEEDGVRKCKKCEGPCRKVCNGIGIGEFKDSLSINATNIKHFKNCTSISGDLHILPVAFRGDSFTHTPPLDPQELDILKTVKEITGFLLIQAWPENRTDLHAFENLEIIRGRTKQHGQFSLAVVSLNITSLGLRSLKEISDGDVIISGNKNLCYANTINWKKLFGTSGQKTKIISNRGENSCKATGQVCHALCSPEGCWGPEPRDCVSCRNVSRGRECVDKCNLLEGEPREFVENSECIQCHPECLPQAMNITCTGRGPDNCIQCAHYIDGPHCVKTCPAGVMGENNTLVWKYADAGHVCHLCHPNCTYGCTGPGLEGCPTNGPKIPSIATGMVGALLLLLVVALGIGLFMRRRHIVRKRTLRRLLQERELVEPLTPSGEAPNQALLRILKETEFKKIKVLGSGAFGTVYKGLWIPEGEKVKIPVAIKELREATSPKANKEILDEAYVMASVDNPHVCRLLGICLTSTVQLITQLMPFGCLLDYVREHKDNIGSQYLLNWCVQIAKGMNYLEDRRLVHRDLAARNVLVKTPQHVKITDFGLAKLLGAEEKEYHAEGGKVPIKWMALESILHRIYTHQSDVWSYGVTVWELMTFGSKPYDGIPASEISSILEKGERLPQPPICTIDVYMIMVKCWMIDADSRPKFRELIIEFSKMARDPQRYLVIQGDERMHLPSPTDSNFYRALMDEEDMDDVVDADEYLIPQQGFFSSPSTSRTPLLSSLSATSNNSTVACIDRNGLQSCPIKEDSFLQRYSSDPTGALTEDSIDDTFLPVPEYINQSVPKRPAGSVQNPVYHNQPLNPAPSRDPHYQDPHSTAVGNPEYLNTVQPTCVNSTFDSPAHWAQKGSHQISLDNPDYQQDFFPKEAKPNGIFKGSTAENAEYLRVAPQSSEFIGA

For C#Cc1cccc(Nc2ncnc3cc(OC)c(OCCCCCCC(=O)NO)cc23)c1 [CUDC-101, 7-(4-(3-ethynylphenylamino)-7-methoxyquinazolin-6-yloxy)-N-hydroxyheptanamide], the IC50 (HER2) is given as 15 nM.
For Clc1ccc(Oc2ncnc3sc4c(c23)CCCCC4)cc1 [Compound D], the IC50 (VEGFR2; [3]) is given as 340 nM.
In the case of O=C(Nc1cccc(Br)c1)Nc1ccc(Oc2ncnc3sc4c(c23)CCCCC4)cc1Cl [Compound E], the IC50 (VEGFR2; [3]) is given as 15 nM and the IC50 (EGFR; Figure 3) is given as 1260 nM.
In the case of CC(C=CC(=O)NO)=CC(C)C(=O)c1ccc(N(C)C)cc1 (stereo not shown) [TSA, reference compound], the “% Inhibition Hela Nuclear Extracts” value (Hela nuclear extracts; 0.0003 µM (printed 0.0003 M)) is reported as 7%, the “% Inhibition Hela Nuclear Extracts” value (Hela nuclear extracts; 0.003 µM (printed 0.003 M)) is reported as 46% and the “% Inhibition Hela Nuclear Extracts” value (Hela nuclear extracts; 0.03 µM (printed 0.03 M)) is reported as 88%. The inhibition at 0.0005 µM (HDAC6 [1]) was 23%, the inhibition at 0.005 µM (HDAC6 [1]) was 73% and the inhibition at 0.05 µM (HDAC6 [1]) was 95%.
In the case of COc1cc2ncnc(Nc3ccc(Br)cc3)c2cc1OCCCCCCC(=O)NO [compound B], the IC50 (VEGFR2; Figure 2, read-out: VEGFR2 IC50) is listed as 74 nM and the IC50 (HDAC) is listed as 2.2 nM.
For O=C(CCCCCCn1cc(-c2ccc3ncnc(Nc4ccc(Br)cc4F)c3c2)nn1)NO [compound C], the IC50 (HDAC6 [2]) is given as 6 nM, the IC50 (EGFR; Figure 2) is given as 4.4 nM and the IC50 (HDAC) is given as 3.2 nM.
For Vandetanib, the IC50 (VEGFR2; read-out: IC50 VEGFR-2) is listed as 40 nM.
